# Laboratory results published in patent US10023592B2, “Bromodomain inhibitors” (Celgene Quanticel Research, Inc., priority 2013, dated 2018).
# Read-outs that look alike come from different tables or passages of the source.
# Biological target: BRD4(BD1) (Homo sapiens (Human), UniProt O60885)
# Test: In vitro enzyme inhibition assay (BRD4 AlphaScreen)
# Format: binding
# Procedure: His-tagged BRD4 was cloned, expressed and purified to homogeneity. […] BRD4 binding and inhibition was assessed by monitoring the interaction of biotinylated H4-tetraacetyl peptide (AnaSpec, H4K5/8/12/16(Ac), biotin-labeled) with the target using the AlphaScreen technology (Life Technologies). […] After 20 min incubation at room temp, Alpha streptavidin donor beads and Nickel Chelate acceptor beads were added to a final concentration of 5 μg/mL.
# The ability of the compounds disclosed herein to inhibit BRD4 activity was quantified and the respective IC50 value was determined.
# [1] = in vitro enzyme inhibition assay
IC50 [1],Compound,other results
,"8-[2-(cyclopropylmethoxy)-5-ethylsulfonylphenyl]-6-methyl-3,4,4a,8a-tetrahydro-2H-pyrido[4,3-b][1,4]oxazin-5-one [Example 366]",IC50: < 500 nM
< 500 nM,"CCS(=O)(=O)Cc1ccc(OCC(F)(F)F)c(-c2cc(C)c(=O)n(C)c2)c1 [Example 411, 5-[5-(ethylsulfonylmethyl)-2-(2,2,2-trifluoroethoxy)phenyl]-1,3-dimethylpyridin-2-one]",
500 to 5000 nM,"Cc1cc(-c2nc(S(C)(=O)=O)ncc2Oc2ccc(F)cc2F)cn(C(C)C)c1=O [Example 510, 5-[5-(2,4-difluorophenoxy)-2-methylsulfonylpyrimidin-4-yl]-3-methyl-1-propan-2-ylpyridin-2-one]",
> 5000 nM,"CCS(=O)(=O)Nc1cc(-c2ccc(=O)n(C)c2)c(-c2ccccc2)s1 [Example 424, N-[4-(1-methyl-6-oxopyridin-3-yl)-5-phenylthiophen-2-yl]ethanesulfonamide]",
< 500 nM,"Cc1cc(-c2cc(OCC(F)(F)F)cc(S(C)(=O)=O)c2)cn(C)c1=O [Example 328, 1,3-dimethyl-5-[3-methylsulfonyl-5-(2,2,2-trifluoroethoxy)phenyl]pyridin-2-one]",
500 to 5000 nM,"Cc1cc(-c2cc(S(C)(=O)=O)cc3c2OCCO3)cn(C)c1=O [Example 489, 1,3-dimethyl-5-(7-methylsulfonyl-2,3-dihydro-1,4-benzodioxin-5-yl)pyridin-2-one]",
< 500 nM,"CCCCc1cnc(S(C)(=O)=O)nc1-c1cc(C)c(=O)n(C)c1 [Example 305, 5-(5-butyl-2-methylsulfonylpyrimidin-4-yl)-1,3-dimethylpyridin-2-one]",
,"CCN(CC)c1cc(-c2ccc(OC)c(NS(C)(=O)=O)c2)cn(C)c1=O [Example 114, N-[5-[5-(diethylamino)-1-methyl-6-oxopyridin-3-yl]-2-methoxyphenyl]methanesulfonamide]",IC50 (class symbols A/B/C): 500 to 5000 nM
< 500 nM,"CCC#CCOc1ccc(S(=O)(=O)CC)cc1-c1cc(OC)c(=O)n(C)c1 [Example 390, 5-(5-ethylsulfonyl-2-pent-2-ynoxyphenyl)-3-methoxy-1-methylpyridin-2-one]",
< 500 nM,"CCS(=O)(=O)Nc1ccc(Oc2ccc(F)cc2F)c(-c2cc(NC)c(=O)n(C)c2)c1 [Example 410, N-[4-(2,4-difluorophenoxy)-3-[1-methyl-5-(methylamino)-6-oxopyridin-3-yl]phenyl]ethanesulfonamide]",
,"Cn1cc(-c2cccc(S(C)(=O)=O)c2)cc(N)c1=O [Example 107, 3-amino-1-methyl-5-(3-methylsulfonylphenyl)pyridin-2-one]",IC50 (class symbols A/B/C): > 5000 nM
< 500 nM,"CCCCc1cnc(S(C)(=O)=O)nc1-c1cc(C(C)C)c(=O)n(C)c1 [Example 513, 5-(5-butyl-2-methylsulfonylpyrimidin-4-yl)-1-methyl-3-propan-2-ylpyridin-2-one]",
500 to 5000 nM,"CCS(=O)(=O)Nc1cccc(-c2cc(C)c(=O)n(C)n2)c1 [Example 480, N-[3-(1,5-dimethyl-6-oxopyridazin-3-yl)phenyl]ethanesulfonamide]",
,"Cn1cc(-c2cccc(S(C)(=O)=O)c2)nc(N)c1=O [Example 104, 3-amino-1-methyl-5-(3-methylsulfonylphenyl)pyrazin-2-one]",IC50 (class symbols A/B/C): > 5000 nM
< 500 nM,"Cn1cc(-c2cc(S(C)(=O)=O)cc3c2OC(C2CC2)C3)c2ccccc2c1=O (stereo not drawn) [Example 493, 4-(2-cyclopropyl-5-methylsulfonyl-2,3-dihydro-1-benzofuran-7-yl)-2-methylisoquinolin-1-one]",
< 500 nM,"Cn1cc(-c2nc(N3CCCS3(=O)=O)ncc2OCC2CC2)c2ccccc2c1=O [Example 156, 4-[5-(cyclopropylmethoxy)-2-(1,1-dioxo-1,2-thiazolidin-2-yl)pyrimidin-4-yl]-2-methylisoquinolin-1-one]",
< 500 nM,"Cc1cc(-c2cc(S(C)(=O)=O)ccc2NC2CCC(F)(F)CC2)cn(C)c1=O [Example 413, 5-[2-[(4,4-difluorocyclohexyl)amino]-5-methylsulfonylphenyl]-1,3-dimethylpyridin-2-one]",
< 500 nM,"CCOc1ccc(S(C)(=O)=O)cc1-c1cn(C)c(=O)c2c1CCCC2 [Example 216, 4-(2-ethoxy-5-methylsulfonylphenyl)-2-methyl-5,6,7,8-tetrahydroisoquinolin-1-one]",
< 500 nM,"CCC1CCc2cc(NS(=O)(=O)CC)cc(-c3cc(C)c(=O)n(C)c3)c2O1 (stereo not drawn) [Example 492, N-[8-(1,5-dimethyl-6-oxopyridin-3-yl)-2-ethyl-3,4-dihydro-2H-chromen-6-yl] ethanesulfonamide]",
< 500 nM,"CC(C)S(=O)(=O)c1ccc(OCC2CC2)c(-c2cn(C)c(=O)c3ccccc23)c1 [Example 364, 4-[2-(cyclopropylmethoxy)-5-propan-2-ylsulfonylphenyl]-2-methylisoquinolin-1-one]",
< 500 nM,"CCCc1cnc(NS(=O)(=O)CC)nc1-c1cc(Cl)c(=O)n(C)c1 [Example 359, N-[4-(5-chloro-1-methyl-6-oxopyridin-3-yl)-5-propylpyrimidin-2-yl]ethanesulfonamide]",
> 5000 nM,"CCS(=O)(=O)Nc1cc(-c2ccc(=O)n(C)c2)c(-c2ccccc2C)s1 [Example 432, N-[4-(1-methyl-6-oxopyridin-3-yl)-5-(2-methylphenyl)thiophen-2-yl]ethanesulfonamide]",
,"COc1ccc(-c2cn(C)c(=O)c3cc(F)ccc23)cc1S(N)(=O)=O [Example 64, 5-(7-fluoro-2-methyl-1-oxoisoquinolin-4-yl)-2-methoxybenzenesulfonamide]",IC50 (class symbols A/B/C): 500 to 5000 nM
< 500 nM,"Cn1cc(-c2nc(S(C)(=O)=O)ncc2Oc2ccc(F)cc2F)c2ccccc2c1=O [Example 151, 4-[5-(2,4-difluorophenoxy)-2-methylsulfonylpyrimidin-4-yl]-2-methylisoquinolin-1-one]",
< 500 nM,"CCS(=O)(=O)c1ccc(OCC2CC2)c(-c2cn(C)c(=O)c3cncnc23)c1 [Example 232, 8-[2-(cyclopropylmethoxy)-5-ethylsulfonylphenyl]-6-methylpyrido[4,3-d]pyrimidin-5-one]",

Compound,IC50 [1],other results
"CCS(=O)(=O)Nc1cc(-c2cc(C)c(=O)n(C)c2)nc(Oc2ccc(F)cc2F)n1 [Example 347, N-[2-(2,4-difluorophenoxy)-6-(1,5-dimethyl-6-oxopyridin-3-yl)pyrimidin-4-yl]ethanesulfonamide]",500 to 5000 nM,
"CCS(=O)(=O)Nc1nc(Oc2ccc(F)cc2F)cc(-c2cc(C)c(=O)n(C)c2)n1 [Example 346, N-[4-(2,4-difluorophenoxy)-6-(1,5-dimethyl-6-oxopyridin-3-yl)pyrimidin-2-yl]ethanesulfonamide]",500 to 5000 nM,
"CCOc1ccc(S(=O)(=O)CC)cc1-c1cn(C)c(=O)cc1C [Example 458, 5-(2-ethoxy-5-ethylsulfonylphenyl)-1,4-dimethylpyridin-2-one]",< 500 nM,
"Cn1cc(-c2cc(S(C)(=O)=O)ccc2Oc2ccc(F)cc2F)c2ncncc2c1=O [Example 233, 8-[2-(2,4-difluorophenoxy)-5-methylsulfonylphenyl]-6-methylpyrido[4,3-d]pyrimidin-5-one]",500 to 5000 nM,
"COc1ccc(COc2cc(-c3cn(C)c(=O)c4ccccc34)cc(S(C)(=O)=O)c2)cc1 [Example 343, 4-[3-[(4-methoxyphenyl)methoxy]-5-methylsulfonylphenyl]-2-methylisoquinolin-1-one]",500 to 5000 nM,
